Patent US20160340286A1, “CLOSTRUBINS” (LEIBNIZ-INSTITUT FÜR NATURSTOFF-FORSCHUNG UND …, priority 2014, published 2016)
≈ marks a conversion by molar mass, not a printed value. Where two headings read alike, the source gives them in different places.

Key:
Format in all cases: cell-based
[1] = system: Escherichia coli; test: standardized antibiotic assay, MIC, Ec; conditions: for MIC: Escherichia coli (Gram-negative)
Method: (§1) The activity and more specifically the bioactivity of the compounds according to the present invention can be assessed using appropriate assays known to those skilled in the art, e.g. in vitro or in vivo assays. For instance, the antimicrobial activity may be determined using a standardized antibiotic assay^[1], and the antiproliferative and/or cytotoxic activity may be determined via a standardized assay as described in reference.
(§2) The antibiotic activity of clostrubin A was tested using a standardized antibiotic assay^[1]. […]. A similar antimicrobial activity as against MRSA was observed against Mycobacterium smegmatis (M smegmatis), Mycobacterium aurum (M aurum), Mycobacterium vaccae (M vaccae) and Mycobacterium fortuitum (M fortuitum)—see, Table 3.

[2] = system: Bs; test: standardized antibiotic assay, MIC, Bs
Method: as §1, §2

[3] = system: methicillin-resistant Staphylococcus aureus (MRSA); test: standardized antibiotic assay, MIC, MRSA
Method: as §1, §2

[4] = system: vancomycin-resistant enterococci (VRE); test: standardized antibiotic assay, MIC, VRE; conditions: Enterococcus
Method: as §1, §2

[5] = system: Mycobacterium aurum; test: anti-mycobacterial activity, MIC; conditions: Mycolicibacterium aurum
Method: as §1, §2

[6] = system: Mycobacterium fortuitum; test: anti-mycobacterial activity, MIC; conditions: Mycolicibacterium fortuitum
Method: as §1, §2

[7] = system: Mycobacterium smegmatis; test: anti-mycobacterial activity, MIC; conditions: Mycolicibacterium smegmatis
Method: as §1, §2

[8] = system: Mycobacterium vaccae; test: anti-mycobacterial activity, MIC; conditions: Mycolicibacterium vaccae
Method: as §1, §2

[9] = system: HUVEC; test: antiproliferative effect, standardized assay
Description: as §1
(§3) Antiproliferative and cytotoxic activity of clostrubin A was tested in a standardized assay^[2].

[10] = system: K-562; test: antiproliferative effect, standardized assay; conditions: Homo sapiens, K562
Description: as §1, §3

[11] = cytotoxicity, standardized assay; conditions: human, HeLa cells
Description: as §1, §3

[12] = system: HeLa; test: cytotoxicity, standardized assay; conditions: summary of Table 4 (HeLa)
Description: as §1, §3

[13] = system: Bacillus pumilus; test: microbe, parasite or virus in culture; conditions: potato soft rot pathogen
Method: (§4) The antimicrobial activity of clostrubin A (1) and clostrubin B (2) against the serious potato pathogens Bacillus pumilus (causing potato soft rot), Clavibacter michiganensis ssp. sepedonicus (causing potato ring rot), and Streptomyces scabies (causing potato scab) was tested.

[14] = system: Streptomyces scabies; test: microbe, parasite or virus in culture; conditions: Streptomyces scabiei; potato scab pathogen
Method: as §4

[15] = system: Clavibacter michiganensis ssp. sepedonicus; test: activity against potato pathogens, MIC; conditions: read-out: MIC Clavibacter michiganensis ssp. sepedonicus

| Compound | MIC [1] [µM] | MIC [2] [µM] | MIC ([3]; read-out: MIC MRSA) [µM] | MIC ([4]; read-out: MIC VRE) [µM] | MIC [5] [µM] | MIC [6] [µM] | MIC [7] [µM] | MIC [8] [µM] | antibiotic activity against Escherichia coli (in words) ([1]; Gram-negative organism) | MIC ([3]; read-out: minimum inhibitory concentration (MIC) MRSA) [µg/mL] | MIC ([4]; read-out: minimum inhibitory concentration (MIC) VRE) [µg/mL] | GI50 ([9]; Homo sapiens, HUVEC) [nM] | antiproliferative activity (in words) ([9]; summary of Table 4 (HUVEC, K-562)) | GI50 [10] [nM] | CC50 [11] [nM] | cytotoxic activity (in words) [12] | MIC [13] [µM] | MIC [14] [µM] | MIC [15] [µM] |
| --- | --- | --- | --- | --- | --- | --- | --- | --- | --- | --- | --- | --- | --- | --- | --- | --- | --- | --- | --- |
| O=C(O)c1cn(C2CC2)c2cc(N3CCNCC3)c(F)cc2c1=O [Cip, ciprofloxacin, reference compound] | 0.01 (≈ 0.00331 µg/mL) | 0.08 (≈ 0.0265 µg/mL) | 37 | 2.3 | 0.3 (≈ 0.0994 µg/mL) | 0.6 (≈ 0.199 µg/mL) | 4.71 (≈ 1.56 µg/mL) | 1.2 (≈ 0.398 µg/mL) |  |  |  |  |  |  |  |  |  |  |  |
| CC(=O)c1ccc2c(c1O)c(O)c1c3c(c(O)cc(C)c32)C(=O)c2c(O)cc(C)cc2-1 [Compound 1, clostrubin A] | > 60 | 0.075 (≈ 0.0311 µg/mL) | 0.12 | 0.97 | 0.12 (≈ 0.0497 µg/mL) | 0.12 (≈ 0.0497 µg/mL) | 0.48 (≈ 0.199 µg/mL) | 0.12 (≈ 0.0497 µg/mL) | ineffective | 0.05 | 0.4 | 1200 | moderate | 2660 | 1690 | moderate | 0.047 (≈ 0.0195 µg/mL) | 0.0947 (≈ 0.0392 µg/mL) | 0.0947 (≈ 0.0392 µg/mL) |
| COCC(O)C(O)C(O)C(=O)c1c(C)cc2c(c1O)C(=O)c1c(O)cc(C)c3c1c-2c(O)c1c(O)c(C(C)=O)ccc13 (stereo not drawn) [Compound 2, clostrubin B] |  |  |  |  |  |  |  |  |  |  |  |  |  |  |  |  | 0.542 (≈ 0.312 µg/mL) | 0.271 (≈ 0.156 µg/mL) | 0.542 (≈ 0.312 µg/mL) |
